Assay results reported in patent EP3860599B1, “(+)-ALPHA-DIHYDROTETRABENAZINE DOSAGE REGIMEN FOR TREATING MOVEMENT DISORDERS” (Adeptio Pharmaceuticals Limited, priority 2018, dated 2020).
Read-outs that look alike come from different tables or passages of the source.

Legend:
Type in all cases: in vivo
[1] = tested on: amphetamine-induced rats; assay: Open field locomotor activity test in amphetamine-induced rats (Example 2, Studies 1, 2 and 4)
Procedure: All animal experiments were carried out according to the National Institute of Health (NIH) guidelines for the care and use of laboratory animals, and approved by the National Animal Experiment Board, Finland. Male CD (Charles River Laboratories, Germany) at weight range of 200-250 g (165-200 g upon arrival) were used for the experiments. Animals were housed at a standard temperature (22 ± 1°C) and in a light-controlled environment (lights on from 7 am to 8 pm) with ad libitum access to food and water.
Locomotor activity of the rats was tested in open field arena. The open field test was performed during the rat light cycle and under a normal lighting evenly distributed to the test chambers. The paths of the rats were recorded by activity monitor (Med. Associates Inc.).
Dosing the vehicle, vehicle-amphetamine, (+)-α-DHTBZ or risperidone was done prior to LMA test. The rats were placed in the centre of the arena, and the path was recorded for 60 minutes.
Animals were grouped as follows: • Group 1: 10 rats treated with Vehicle (t= 0 min) and Vehicle (t= 30 min) • Group 2: 10 rats treated with Vehicle (t= 0 min) and Amphetamine (t= 30 min) • Group 3: 10 rats treated with (+)-α-DHTBZ 0.5 mg/kg (t=0 min) and Amphetamine (t= 30 min) • Group 4: 10 rats treated with (+)-α-DHTBZ 1 mg/kg (t=0 min) and Amphetamine (t= 30 min) • Group 5: 10 rats treated with (+)-α-DHTBZ 1.5 mg/kg (t=0 min) and Amphetamine (t= 30 min) • Group 6: 10 rats treated with (+)-α-DHTBZ 2 mg/kg (t=0 min) and Amphetamine (t= 30 min) • Group 7: 10 rats treated with risperidone 1 mg/kg (t=0 min) and Amphetamine (t= 30 min)
Animals were grouped as follows: • Group 1: 10 rats treated with Vehicle (t= 0 min) and Vehicle (t= 30 min) • Group 2: 10 rats treated with Vehicle (t= 0 min) and Amphetamine (t= 30 min) • Group 3: 10 rats treated with (+)-α-DHTBZ 0.1 mg/kg (t=0 min) and Amphetamine (t=30 min) • Group 4: 10 rats treated with (+)-α-DHTBZ 0.25 mg/kg (t=0 min) and Amphetamine (t=30 min) • Group 5: 10 rats treated with risperidone 1 mg/kg (t=0 min) and Amphetamine (t= 30 min)
Animals were grouped as follows: • Group 1: 10 rats treated with Vehicle (t= 0 min) and Vehicle (t= 30 min) • Group 2: 10 rats treated with Vehicle (t= 0 min) and Amphetamine (t= 30 min) • Group 3: 10 rats treated with (+)-α-DHTBZ 1 mg/kg (t=0 min) and Amphetamine (t=30 min) • Group 4: 10 rats treated with (+)-α-DHTBZ 1.5 mg/kg (t=0 min) and Amphetamine (t=30 min) • Group 5: 10 rats treated with Valbenazine 1 mg/kg (t=0 min) and Amphetamine (t=30 min) • Group 6: 10 rats treated with Valbenazine 1.5 mg/kg (t=0 min) and Amphetamine (t=30 min) • Group 7: 10 rats treated with risperidone 1 mg/kg (t=0 min) and Amphetamine (t= 30 min)

[2] = molecular target: T1, VMAT2 (Homo sapiens, UniProt Q05940); assay: % VMAT2 blocking by PET scan after oral dosing of human volunteers, Example 1A
T1 construct: from tissue
T1 sequence (Q05940 whole entry): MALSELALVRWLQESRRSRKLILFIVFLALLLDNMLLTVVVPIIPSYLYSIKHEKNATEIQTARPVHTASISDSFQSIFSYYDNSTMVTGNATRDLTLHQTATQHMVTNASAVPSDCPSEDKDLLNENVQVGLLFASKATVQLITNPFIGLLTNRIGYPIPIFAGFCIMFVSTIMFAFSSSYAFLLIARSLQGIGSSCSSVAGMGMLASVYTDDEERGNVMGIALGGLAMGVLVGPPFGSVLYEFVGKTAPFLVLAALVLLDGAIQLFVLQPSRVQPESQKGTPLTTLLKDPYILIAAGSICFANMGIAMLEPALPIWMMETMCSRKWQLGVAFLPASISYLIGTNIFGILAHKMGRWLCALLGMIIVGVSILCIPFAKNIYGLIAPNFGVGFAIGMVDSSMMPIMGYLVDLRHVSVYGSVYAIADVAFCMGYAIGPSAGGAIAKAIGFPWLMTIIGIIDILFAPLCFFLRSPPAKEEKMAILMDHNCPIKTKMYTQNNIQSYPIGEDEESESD
Excerpt: (§1) Complete blocking of VMAT2 is considered undesirable as this can lead to unwanted side effects, such as Parkinsonism. […] The levels of VMAT2 blocking can be determined by competitive binding studies using Positron Emission Tomography (PET). By co-administering a radioactive ligand with the compound of interest at various concentrations, the proportion of binding sites occupied can be determined (see for example, Matthews et al., "Positron emission tomography molecular imaging for drug development", Br. J. Clin. Pharmacol., 73:2, 175-186).
Blood samples were taken at 30, 60, 120 and 180 minutes after drug administration. At 60 minutes after drug administration, PET scans were initiated and these were stopped at 120 minutes after drug administration.
The experiment was carried out at dosages of 7.5 mg, 15 mg and 22.5 mg.

[3] = molecular target: T1, VMAT2; assay: % VMAT2 blocking in caudate and putamen by PET scan 6-7 hours after oral dosing, Example 1B; conditions: for receptor occupancy at 7.5 mg: po, 7.5 mg oral, PET scan 6-7 hours after administration
Excerpt: as §1
Volunteers 1 and 2 were the same as volunteers 1 and 2 in Example 1A described above. […] Blood sample were taken from all volunteers at 2, 4, 6 and 7 hours after drug administration. In addition, in all volunteers PET scans were initiated at 6 hours after drug administration and these were stopped at 7 hours after drug administration.

[4] = Study 1 conclusions, all the tested doses (0.5, 1, 1.5 and 2 mg/kg)

Q: COc1cc2c(cc1OC)[C@H]1C[C@@H](O)[C@H](CC(C)C)CN1CC2 [(+)-α-dihydrotetrabenazine, (R,R,R)-3-isobutyl-9,10-dimethyloxy-1,3,4,5,7,11b-hexahydro-2H-pyrido[2,1-a]isoquinolin-2-ol] was tested. Which “locomotor activity when compared to the vehicle-amphetamine group” value [1, 4] did it give?
A: lower locomotor activity

Q: And the “stereotypic behaviour when compared to the vehicle-amphetamine group” value [1, 4]?
A: reduced stereotypic behaviour

Q: And the “locomotor activity when compared to the vehicle-amphetamine group” value ([1]; Study 2 conclusions, 0.25 mg/kg)?
A: lower locomotor activity

Q: And the “stereotypic behaviour when compared to the vehicle-amphetamine group” value ([1]; Study 2 conclusions, both the tested doses (0.1 mg/kg and 0.25 mg/kg))?
A: reduced stereotypic behaviour

Q: And the “locomotor activity when compared to the vehicle-amphetamine group and the corresponding dose of Valbenazine” value ([1]; Study 4 conclusions, 1 mg/kg and 1.5 mg/kg)?
A: lower locomotor activity

Q: And the “stereotypic behaviour when compared to the vehicle-amphetamine group and the corresponding dose of Valbenazine” value ([1]; Study 4 conclusions, both the tested doses (1 mg/kg and 1.5 mg/kg))?
A: reduced stereotypic behaviour

Q: What about the “% VMAT2 blocking” value ([2]; even in heavier individuals, doses as low as 7.5 mg) of the same compound?
A: at least 50%

Q: What about the “% VMAT2 blocking” value ([2]; subject 1 (112 kg), 7.5 mg oral, PET scan 60-120 minutes after administration) of the same compound?
A: 54%

Q: And the “% VMAT2 blocking” value ([2]; subject 1 (112 kg), 15 mg oral, PET scan 60-120 minutes after administration)?
A: 73%

Q: And the “% VMAT2 blocking” value ([2]; subject 1 (112 kg), 22.5 mg oral, PET scan 60-120 minutes after administration)?
A: 75%

Q: And the “% VMAT2 blocking” value ([2]; subject 2 (76 kg), 7.5 mg oral, PET scan 60-120 minutes after administration)?
A: 73%

Q: And the “% VMAT2 blocking” value ([2]; subject 2 (76 kg), 15 mg oral, PET scan 60-120 minutes after administration)?
A: 83%

Q: And the “% VMAT2 blocking” value ([2]; subject 2 (76 kg), 22.5 mg oral, PET scan 60-120 minutes after administration)?
A: 82%

Q: And the “% VMAT2 blocking” value ([2]; subject 3 (129 kg), 7.5 mg oral, PET scan 60-120 minutes after administration)?
A: 62%

Q: What about the “% VMAT2 blocking” value ([2]; subject 3 (129 kg), 15 mg oral, PET scan 60-120 minutes after administration) of the same compound?
A: 69%

Q: And the “% VMAT2 blocking” value ([2]; subject 3 (129 kg), 22.5 mg oral, PET scan 60-120 minutes after administration)?
A: 74%

Q: And the “% VMAT2 blocking” value ([2]; subject 4 (59 kg), 7.5 mg oral, PET scan 60-120 minutes after administration)?
A: 84%

Q: What about the “% VMAT2 blocking” value ([2]; subject 4 (59 kg), 15 mg oral, PET scan 60-120 minutes after administration) of the same compound?
A: 89%

Q: And the “% VMAT2 blocking” value ([2]; subject 5 (91 kg), 7.5 mg oral, PET scan 60-120 minutes after administration)?
A: 73%

Q: And the “% VMAT2 blocking” value ([2]; subject 5 (91 kg), 15 mg oral, PET scan 60-120 minutes after administration)?
A: 79%

Q: What about the “% VMAT2 blocking” value ([2]; subject 5 (91 kg), 22.5 mg oral, PET scan 60-120 minutes after administration) of the same compound?
A: 82%

Q: What about the “% VMAT2 blocking” value ([2]; subject 6 (68 kg), 7.5 mg oral, PET scan 60-120 minutes after administration) of the same compound?
A: 60%

Q: What about the “% VMAT2 blocking” value ([2]; subject 6 (68 kg), 15 mg oral, PET scan 60-120 minutes after administration) of the same compound?
A: 76%

Q: What about the “% VMAT2 blocking” value ([2]; subject 6 (68 kg), 22.5 mg oral, PET scan 60-120 minutes after administration) of the same compound?
A: 62%

Q: What about the “% VMAT2 blocking” value ([3]; after 6 hours following administration of 7.5mg) of the same compound?
A: greater than 30%

Q: What about the “difference between the %VMAT2 blocking levels in the caudate and putamen regions of the striatum” value ([3]; each subject, 7.5 mg) of the same compound?
A: No significant difference

Q: And the receptor occupancy at 7.5 mg ([3]; Example 1B subject 1 (112 kg), read-out: %VMAT2 Occupancy Caudate)?
A: 38%

Q: What about the receptor occupancy at 7.5 mg ([3]; Example 1B subject 1 (112 kg), read-out: %VMAT2 Occupancy Putamen) of the same compound?
A: 39%

Q: What about the receptor occupancy at 7.5 mg ([3]; Example 1B subject 2 (76 kg), read-out: %VMAT2 Occupancy Caudate) of the same compound?
A: 65%

Q: And the receptor occupancy at 7.5 mg ([3]; Example 1B subject 2 (76 kg), read-out: %VMAT2 Occupancy Putamen)?
A: 63%

Q: What about the receptor occupancy at 7.5 mg ([3]; Example 1B subject 3 (76 kg), read-out: %VMAT2 Occupancy Caudate) of the same compound?
A: 41%

Q: And the receptor occupancy at 7.5 mg ([3]; Example 1B subject 3 (76 kg), read-out: %VMAT2 Occupancy Putamen)?
A: 42%

Q: And the receptor occupancy at 7.5 mg ([3]; Example 1B subject 4 (95 kg), read-out: %VMAT2 Occupancy Caudate)?
A: 34%

Q: And the receptor occupancy at 7.5 mg ([3]; Example 1B subject 4 (95 kg), read-out: %VMAT2 Occupancy Putamen)?
A: 32%

Q: And the receptor occupancy at 7.5 mg ([3]; Example 1B subject 5 (99 kg), read-out: %VMAT2 Occupancy Caudate)?
A: 36%

Q: What about the receptor occupancy at 7.5 mg ([3]; Example 1B subject 5 (99 kg), read-out: %VMAT2 Occupancy Putamen) of the same compound?
A: 36%

Q: And the receptor occupancy at 7.5 mg ([3]; Example 1B subject 6 (107 kg), read-out: %VMAT2 Occupancy Caudate)?
A: 44%

Q: What about the receptor occupancy at 7.5 mg ([3]; Example 1B subject 6 (107 kg), read-out: %VMAT2 Occupancy Putamen) of the same compound?
A: 49%

Q: And the “reduction of level of blocking after 6-7 hours compared to the %VMAT2 blocking after 1-2 hours following administration” value ([3]; subject 1, 7.5 mg)?
A: 30%

Q: And the “reduction of level of blocking after 6-7 hours compared to the %VMAT2 blocking after 1-2 hours following administration” value ([3]; subject 2, 7.5 mg)?
A: 11%
